For one data set, the target named is T1, HDAC1 (Homo sapiens, UniProt Q13547).
T1 construct: GST (C); host or cells: baculovirus expression system, Sf9 insect cells (SP9 [sic])
Nature of the data set: HDAC1 activity, acetylated-AMC-labeled peptide substrate. Format: biochemical. The procedure:
(§1) The activities of HDAC 1 and 6 were measured by using an acetylated-AMC-labeled peptide substrate, a fluorogenic peptide from p53 residues 379-382 (RHIKKAc). The proteins involved in the assay are as the followings (1) Human HIDAC1 (Genflank Accession No. NM_004964): Full length with C-terminal GST tag, MW=79.9 kDa, expressed by baculovirus expression system in SP9 cells; and (2) Human HIDAC6 (Genflank Accession No. BC069243): Full length with N-terminal GST tag, MW=159 kDa, expressed by baculovirus expression system in Sf9 cells.

The next data set has as its target T2, HDAC6 (Homo sapiens, UniProt Q9UBN7).
T2 construct: GST (N); host or cells: baculovirus expression system, Sf9 insect cells
T2 sequence (Q9UBN7 1-1215): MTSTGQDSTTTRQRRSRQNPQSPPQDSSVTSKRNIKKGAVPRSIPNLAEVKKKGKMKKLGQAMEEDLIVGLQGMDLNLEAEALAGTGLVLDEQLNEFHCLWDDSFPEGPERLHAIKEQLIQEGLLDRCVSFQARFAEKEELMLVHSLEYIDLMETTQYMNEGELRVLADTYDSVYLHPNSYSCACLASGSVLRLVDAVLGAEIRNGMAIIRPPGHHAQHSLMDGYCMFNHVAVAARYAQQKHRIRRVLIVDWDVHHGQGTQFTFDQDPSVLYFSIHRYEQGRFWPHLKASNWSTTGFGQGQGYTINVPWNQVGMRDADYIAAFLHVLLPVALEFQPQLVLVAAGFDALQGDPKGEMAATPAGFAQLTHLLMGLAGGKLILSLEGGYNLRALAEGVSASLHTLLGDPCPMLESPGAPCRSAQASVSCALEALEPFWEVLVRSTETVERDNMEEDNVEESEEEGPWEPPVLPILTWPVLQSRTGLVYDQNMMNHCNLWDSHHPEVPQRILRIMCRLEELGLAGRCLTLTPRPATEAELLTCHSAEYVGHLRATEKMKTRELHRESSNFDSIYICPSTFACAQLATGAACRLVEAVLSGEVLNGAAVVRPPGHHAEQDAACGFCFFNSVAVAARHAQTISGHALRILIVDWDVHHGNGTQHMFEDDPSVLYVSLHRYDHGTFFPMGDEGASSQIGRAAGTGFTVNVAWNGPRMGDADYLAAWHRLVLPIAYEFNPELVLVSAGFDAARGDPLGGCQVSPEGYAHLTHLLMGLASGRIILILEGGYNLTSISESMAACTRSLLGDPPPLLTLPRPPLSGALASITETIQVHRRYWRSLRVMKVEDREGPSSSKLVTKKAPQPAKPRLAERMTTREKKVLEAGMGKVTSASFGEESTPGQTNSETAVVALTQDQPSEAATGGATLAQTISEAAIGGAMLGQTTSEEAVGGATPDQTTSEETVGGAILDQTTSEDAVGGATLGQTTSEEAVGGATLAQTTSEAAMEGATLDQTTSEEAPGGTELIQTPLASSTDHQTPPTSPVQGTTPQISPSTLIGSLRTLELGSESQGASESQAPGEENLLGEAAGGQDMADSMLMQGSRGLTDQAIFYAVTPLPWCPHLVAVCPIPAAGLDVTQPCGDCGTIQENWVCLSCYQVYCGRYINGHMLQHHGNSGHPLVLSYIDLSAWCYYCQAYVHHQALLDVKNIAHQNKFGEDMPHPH
The data set is described as follows: HDAC6 activity, acetylated-AMC-labeled peptide substrate. Format: biochemical. The procedure:
as §1

Data set [1] relates to BioMAP Fibrosis panel (REMyoF, SAEMyoF, MyoF systems). The data set is described as follows: BioMAP Fibrosis panel cytokine/biomarker profiles. In kind it is cell-based. The procedure: The HDAC6 inhibitor compounds were tested in a commercially available platform, BioMAP, for the cytokine profiles in related to tissue injuries. The BioMAP Fibrosis panel included 3 systems stimulated to model TGFβ and TNFα driven myofibroblast differentiation during chronic inflammation and wound healing in different tissue settings. Fibrotic disease of the kidney associated with end-stage renal failure was captured in the REMyoF system consisting of a co-culture of renal proximal tubule epithelial cells and adult fibroblasts. Interstitial lung diseases, including pulmonary fibrotic diseases such as idiopathic pulmonary fibrosis (IPF), was modeled by co-culturing small airway epithelial cells and adult fibroblasts in the SAEMyoF system. Both co-culture systems modeled the paracrine interaction between myofibroblasts and the proximally located epithelial cells, while the impact on fibroblasts alone was interrogated using the monoculture MyoF system. A signature BioMAP profile that is reflective of the changes in protein biomarker readouts within an individual system was generated for each testing compounds. Biomarker readouts selected for therapeutic and biological relevance were predictive for disease outcomes or specific drug effects, and was validated using agents with known clinical efficacy. Each readout was measured quantitatively by immune-based methods that detect protein (e.g., ELISA).

Data set [2] concerns bleomycin-induced pulmonary fibrosis. The data set is described as follows: Bleomycin-induced pulmonary fibrosis model, lung histology (H&E). In kind it is in vivo, mice. The procedure: (§2) The activities of compounds COMPOUND 2 and COMPOUND 33 in preventing and/or treating pulmonary fibrosis were examined using a bleomycin-induced pulmonary fibrosis model, a model that involves deactivated bleomycin hydrolase, elevated oxidative stress, and increased inflammatory cytokines. In the prevention model, mice were administered bleomycin intratracheally an hour in prior to the first oral administration of 30 mg/kg testing compounds. The treatment continued for 21 consecutive days, and mice were sacrificed to examine histological changes of lung tissues were analyzed by H&E staining to evaluate the degree of lung fibrosis. Additionally, the HDAC6 inhibitors, COMPOUND 2 and COMPOUND 33, were tested for their effect in aiding animal recovery from lung injury and pulmonary fibrosis post injury.

A further data set relates to IL-6. The data set is described as follows: IL-6 in bronchoalveolar lavage fluid, bleomycin model. In kind it is in vivo, mice. The note with it: prevention model, 30 mg/kg oral, 21 days; FIG. 6. The procedure: as §2, with “fibrosis.” for “fibrosis. Additionally, the HDAC6 inhibitors, COMPOUND 2 and COMPOUND 33, were tested for their effect in aiding animal recovery from lung injury and pulmonary fibrosis post injury.”

Data set [3] is described as follows: Oral pharmacokinetics (Table II). The arrangement: AUC: concentration or dose not given beside the values. The note with it: in vivo.
For data set [4], the system named is acetylated α-tubulin (Ac-α-tub). The data set is described as follows: Western blot of acetylated α-tubulin in primary DRG cells. In kind it is cell-based, C57BL/6J mice. The note with it: 48 hours of treatment, FIG. 2. How it is done:
(§3) To investigate the effect of HDAC6 inhibitors in neuron protection and neuron regeneration, the recovery of dorsal root ganglion (DRG) cells post-paclitaxel injury was tested. Dorsal root ganglion was extracted from 7 week-old female C57BL/6J mice and incubated with HDAC6 inhibitors (compounds COMPOUND 33, COMPOUND 34, or COMPOUND 2) at the concentrations of 0.1 μM and 1 μM, or 100 ng/ml of BDNF, a neuronal growth factor (positive control), for 24 hours prior to a 24-hour incubation of 0.1 μM paclitaxel.
(In general: A western blot detects proteins with antibodies after separation by electrophoresis.)

Data set [5] concerns dorsal root ganglion (DRG) cells. Nature of the data set: DRG neurite outgrowth after paclitaxel-induced damage. Format: cell-based, C57BL/6J mice. The conditions noted are these: 0.1 μM and 1 μM, 24 hours prior to 24-hour 0.1 μM paclitaxel; FIG. 1. The procedure:
as §3
The neurite was stained by pIII-tubulin.

Molecules are shown by their SMILES.

T1 sequence (Q13547 whole entry): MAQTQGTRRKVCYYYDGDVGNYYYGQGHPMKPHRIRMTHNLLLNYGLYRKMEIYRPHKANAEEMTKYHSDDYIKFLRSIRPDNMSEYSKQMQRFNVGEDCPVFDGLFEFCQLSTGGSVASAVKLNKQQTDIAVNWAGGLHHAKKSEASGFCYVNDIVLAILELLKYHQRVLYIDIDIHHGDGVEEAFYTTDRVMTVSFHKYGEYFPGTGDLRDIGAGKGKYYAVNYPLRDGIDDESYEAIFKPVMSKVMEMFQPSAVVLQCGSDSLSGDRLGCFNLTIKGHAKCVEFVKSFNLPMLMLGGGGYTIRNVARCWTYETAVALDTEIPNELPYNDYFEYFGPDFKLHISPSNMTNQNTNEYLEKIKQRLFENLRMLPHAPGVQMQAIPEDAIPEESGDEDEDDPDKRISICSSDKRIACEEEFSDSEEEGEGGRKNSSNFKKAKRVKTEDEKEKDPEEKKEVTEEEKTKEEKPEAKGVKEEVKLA

Turning to `CCc1nc2cc(F)c(/C=C/C(=O)NO)cc2c(=O)n1-c1ccccc1` [Compound 33, (E)-3-(2-ethyl-7-fluoro-4-oxo-3-phenyl-3,4-dihydroquinazolin-6-yl)-N-hydroxyacrylamide], at HDAC1, 4440 nM corresponded to half-maximal inhibition (IC50). In addition, the “HDAC6 selectivity (A)/(B)” value on HDAC6 (HDAC1 IC50 / HDAC6 IC50) was found to be 134. In addition, the half-inhibitory concentration (IC50) at HDAC6 (read-out: HDAC6 IC50 (B)) is 33 nM. Further, in data set [1] (BioMAP readouts), the fibrosis-related matrix activities result is “decreased Collagen III, MMP-9; increased Collagen IV; modulated MMP-1, Collagen I”; the inflammation-related activities entry is “decreased M-CSF, sIL-6, MCP-1; modulated IP-10, I-TAC”; the myofibroblast activation-related activities result is reported as “decreased αSMA, E-Cadherin, N-Cadherin”; the “tissue remodeling/wound healing activities” value is listed as “decreased EGFR, tPA, uPA; modulated sVEGF”. In addition, in data set [1] (compared with nintedanib), the “activities on cytokines contributing to fibrosis” value was “marked activities in decreasing TNF-α, IL-1, IL-6, MMP-9, VEGF, and collagen I”. Further, the “development of lung fibrosis” value in data set [2] (prevention model, 30 mg/kg oral, 21 consecutive days, FIG. 5) is listed as “markedly decreased the development of lung fibrosis”. In data set [2] (treatment post injury), the “recovery from lung injury and pulmonary fibrosis post injury” value was “protective effect in pulmonary inflammatory response and pulmonary fibrosis”. Further, in the data set on IL-6, the “IL-6 level in the BALF” value is “suppressed IL-6 level in the BALF”. For the same compound, the highest level in data set [3] (Cmax) was 2720 ng/mL. This compound yielded an exposure (AUC) in data set [3] (unit inferred) of 11000 ng·h/mL. Moreover, the tubulin hyperacetylation result in data set [4] is recorded as “tubulin hyperacetylation”. The neurite outgrowth result in data set [5] was “significantly rescued the neurite outgrowth”.

In general, IC50 refers to the concentration needed to halve the response being measured. For orientation: Cmax means the peak of the concentration-time curve. The term AUC denotes concentration integrated over time.
